The experiment has as its system BPLER cells. Nature of the experiment: cell migration assay (dual-chamber with small pores). The settings on record: cells transfected with siRNAs against NANS or CMAS, supplemented with NANA. The class given is cell-based, human. The protocol:
However, NANA is incorporated on the cell surface of several proteins involved in cell adhesion, and loss of NANA was suspected to affect cell motility. Using a cell migration assay, cells were cultured in a dual-chamber containing small pores at the bottom of the top chamber, malignant cells (especially those with metastatic potential) are able to migrate through the pores and form colonies. As expected, shown in FIG. 12 BPLER have an increased migration rate as compared to HMLER cells due to their increased turmorigenic properties. […] To confirm NANA expression directly influences motility, a rescue experiment was performed in which cells transfected with siRNAs against NANS or CMAS were supplemented NANA. […] Monitoring NANA expression could predict the metastatic potential of a cell. In addition both NANS/CMAS are novel key targets to manipulate migration and metastasis.

Molecules are shown by their SMILES.

For the compound `CC(=O)N[C@H]1[C@H]([C@H](O)[C@H](O)CO)OC(O)(C(=O)O)C[C@@H]1O` (stereo partly shown) [NANA, N-acetylneuraminic acid], the “rescue of migration phenotype” value is “partially restore”.

Source of the values: US9606106B2, “NMR-based metabolite screening platform” (THE CHILDREN'S MEDICAL CENTER CORPORATION, priority 2012, dated 2017).
